# Data as given in article PMC11794154, “Molecular basis for the diversification of lincosamide biosynthesis by pyridoxal phosphate-dependent enzymes” (Nature Chemistry, 2024).
# Key:
# CcbF = biological target: T1, CcbF (Streptomyces caelestis, UniProt E9JES7); assay: X-ray crystal structure, […] Å; format: binding; conditions: covalent; internal aldimine with Lys260
# T1 construct: full-length gene in pET42b (NdeI/XhoI), C-terminal His8 tag, expressed in E. coli BLR(DE3)/pGro7; catalytic Lys260; printed ccbF forward primer is identical to the lmbF one (likely misprint)
# T1 sequence (E9JES7 entry or part of it): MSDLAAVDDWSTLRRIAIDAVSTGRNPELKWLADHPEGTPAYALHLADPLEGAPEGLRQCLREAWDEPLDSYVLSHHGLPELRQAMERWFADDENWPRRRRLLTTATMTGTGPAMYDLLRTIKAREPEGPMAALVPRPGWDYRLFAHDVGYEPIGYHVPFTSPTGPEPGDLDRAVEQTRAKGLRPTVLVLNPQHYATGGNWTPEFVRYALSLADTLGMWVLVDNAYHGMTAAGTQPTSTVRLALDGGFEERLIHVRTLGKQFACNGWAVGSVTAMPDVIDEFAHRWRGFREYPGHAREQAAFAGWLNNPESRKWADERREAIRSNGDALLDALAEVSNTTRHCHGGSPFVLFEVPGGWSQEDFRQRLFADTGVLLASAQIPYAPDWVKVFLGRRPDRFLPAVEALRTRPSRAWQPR
# LmbF = biological target: T2, LmbF (Streptomyces lincolnensis, UniProt A9Y8R7); assay: X-ray crystal structure, […] Å; format: binding; conditions: covalent; internal aldimine with Lys270
# T2 construct: full-length gene in pET42b (NdeI/XhoI), C-terminal His8 tag, expressed in E. coli BLR(DE3)/pGro7; active site at dimer interface; catalytic Lys270
# T2 sequence (A9Y8R7 entry or part of it): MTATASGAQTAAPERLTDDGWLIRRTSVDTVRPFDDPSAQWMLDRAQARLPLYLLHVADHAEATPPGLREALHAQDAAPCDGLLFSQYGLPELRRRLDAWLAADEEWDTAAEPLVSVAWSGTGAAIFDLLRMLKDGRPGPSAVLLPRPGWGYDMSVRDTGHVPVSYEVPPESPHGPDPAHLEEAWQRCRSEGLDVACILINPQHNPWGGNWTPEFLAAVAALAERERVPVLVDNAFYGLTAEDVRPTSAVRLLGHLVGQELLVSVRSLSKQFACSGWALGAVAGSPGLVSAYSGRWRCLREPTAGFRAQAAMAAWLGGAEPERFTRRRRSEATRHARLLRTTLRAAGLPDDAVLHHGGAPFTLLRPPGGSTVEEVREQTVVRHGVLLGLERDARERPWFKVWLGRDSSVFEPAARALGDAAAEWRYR
compound,measurement,setting,value
Cc1ncc(COP(=O)(O)O)c(C=O)c1O [PLP],"X-ray crystal structure, 1.8 Å",CcbF,we solved the X-ray crystal structures of LmbF and CcbF with PLP
same,"X-ray crystal structure, 1.7 Å",LmbF,we solved the X-ray crystal structures of LmbF and CcbF with PLP
